These results are taken from US20250152516A1, “COMPRESSIBLE SODIUM CAPRATE FORMULATIONS” (AstraZeneca AB, priority 2022, published 2025).

“Also recorded” adds a separate entry of the source. l = locked nucleic acid (LNA); [5mC] = 5-methylcytosine; d = 2'-deoxy (DNA)

Common to all, as to format: physicochemical
A short description of series [1]: Compaction properties (tabletability, tablet tensile strength, compaction simulator) of sodium caprate forms. Conditions: tablets of each form; high pressure = above approximately 50 MPa.
Assay in series [2]: as above
Conditions: tablets of each form; particle sizes about 37-53, 150-300, 600-710 μm; FIGS. 5A-5C. The protocol: The tabletability of different particle sizes and forms of sodium caprate was obtained by measuring the tensile strength of tablets compressed using a compaction simulator. FIGS. 5A-5C show the results of tabletability with laboratory-scale amounts of sodium caprate with particle sizes of about 37 to 53 μm, of about 150 to 300 μm, and of about 600 to 710 μm, respectively.
Tablets were produced with each of the sodium caprate forms, and compaction properties were assessed.

The nature of series [3]: Karl Fischer titration, water content of sodium caprate forms. The conditions noted are these: forms prepared as in Example 1. The protocol:
In some embodiments, the water content of sodium caprate is determined by Karl Fischer titration. Karl Fischer titration uses coulometric or volumetric titration to determine trace amounts of water in a sample. Methods of performing Karl Fischer titration are known to the skilled artisan. In some embodiments, Form A or Form B sodium caprate has a lower water content compared with Form C or Form D water content. In some embodiments, the sodium caprate is Form A sodium caprate characterized by a water content by Karl Fischer titration below 2%, below 1.9%, below 1.8%, below 1.7%, below 1.6%, below 1.5%, or below 1.4%. In some embodiments, Form A sodium caprate has a water content of about 0.4% to about 1.7%. Form B sodium caprate has a water content ≤1%. Form C sodium caprate has a water content of about 2% to about 3%, and Form D sodium caprate has a water content of about 2.5% to about 4%. In some embodiments, the sodium caprate used for making the oral tablet has a water content of less than about 2% as measured by Karl Fischer titration. In some embodiments, the sodium caprate has a water content of less than about 1.5%. In some embodiments, the sodium caprate has a water content of about 1%, about 1.1%, about 1.2%, about 1.3%, about 1.4%, about 1.5%, about 1.6%, about 1.7%, about 1.8%, about 1.9%, or about 2.0%. […]

Series [4] is described as follows: Dissolution profile of tablets comprising Form A sodium caprate and a macromolecule. The conditions noted are these: Example 12 Formulation 1 tablets; pH 6.8 phosphate buffer at 37° C.; FIGS. 20A-20B. From the text:
The dissolution profiles of tablets comprising Form A sodium caprate and an ASO, prepared according to Example 12, Formulation 1, are illustrated in FIG. 20A. […] (mimicking the small intestinal condition). This allows for maximum absorption enhancement. The dissolution profile of tablets comprising Form A sodium caprate and the MEDI7219 Peptide is illustrated in FIG. 20B. […] (mimicking the small intestinal condition).

Take `CCCCCCCCCC(=O)[O-].[Na+]` [Form B, sodium caprate]: the “sticking tendency during tableting” value in series [1] is given as “high sticking tendency”. For the same compound, in series [2], the “compaction properties / tabletability” value is recorded as “poor tabletability”.
In the case of `CCCCCCCCCC(=O)[O-].[Na+]` [Form C, sodium caprate], in series [1], the “sticking tendency during tableting” value is reported as “high sticking tendency”. Also, in series [3], the “Amount of Water (%)” value is reported as 2-3%. Further, the “compaction properties / tabletability” value in series [2] is on record as “poor tabletability; also recorded: worst tabletability”.
For the compound `CCCCCCCCCC(=O)[O-].[Na+]` [Form A, sodium caprate], the “release (dissolution) from tablets” value in series [4] is “rapid and concomitant release”. Also, in series [1], the “sticking tendency during tableting” value was “no observable sticking at high pressure”. Further, the “compaction properties / tabletability” value in series [2] is on record as “best compaction properties”.
Consider “GM5CAttctaatagcAGM5C (antisense GCATTCTAATAGCAGC; sugars from the 5' end l3 d10 l3, [5mC] at 2, 16, backbone not given here) [MALAT1, antisense oligonucleotide targeting MALAT1, with LNA nucleosides and 5-methylcytidine, reference compound]”, for which, in series [4], the “release (dissolution) from tablets” value was “rapid and concomitant release”.
Consider `CCCCCCCCCC(=O)[O-].[Na+]` [Form D, sodium caprate], for which the “sticking tendency during tableting” value in series [1] was “high sticking tendency”. Besides, in series [2], the “compaction properties / tabletability” value is “poor tabletability; also recorded: worst tabletability”.
